Measurements reported in patent US11220505B2, “5-hydroxytryptamine receptor 7 modulators and their use as therapeutic agents” (Temple University-Of the Commonwealth System of Higher …, priority 2017, dated 2022).

Biological target: Serotonin 5-HT7 Receptors (Homo sapiens (Human), UniProt P34969)
Assay: Radiolabel Binding Studies for Serotonin 5-HT7 Receptors, Method 2 ([3H]-5HT competition; Ki and percent inhibition at 10 μM)
Details: for IC50: radiolabel binding, 5HT7 receptors; for inhibition at 10 µM: @ 10 μM single concentration, read-out: 5-HT7 percent inhibition of radioligand binding
Description: Radiolabel Binding Studies for Serotonin 5-HT7 Receptors, Method 2:
A solution of the compound of the disclosure to be tested is prepared as a 1-mg/ml stock in Assay Buffer or DMSO according to its solubility. A similar stock of the reference compound chlorpromazine is also prepared as a positive control. Eleven dilutions (5×assay concentration) of the compound of the disclosure and chlorpromazine are prepared in the Assay Buffer by serial dilution to yield final corresponding assay concentrations ranging from 10 pM to 10 μM.
A stock concentration of 5 nM [^3H]-5-Hydroxytryptamine ([^3H]-5HT) is prepared in 50 mM Tris-HCl, 10 mM MgCl2, 1 mM EDTA, pH 7.4 (Assay Buffer). Aliquots (50 μl) of radioligand are dispensed into the wells of a 96-well plate containing […] of Assay Buffer. Duplicate 50-μl aliquots of the compound of the disclosure test and chlorpromazine positive control reference compound serial dilutions are added.
Membrane fractions of cells expressing recombinant 5HT7 receptors (50 μL) are dispensed into each well. The membranes are prepared from stably transfected cell lines expressing 5HT7 receptors cultured on 10-cm plates by harvesting PBS-rinsed monolayers, resuspending and lysing in chilled, hypotonic 50 mM Tris-HCl, pH 7.4, centrifuging at 20,000×g, decanting the supernatant and storing at −80° C.; the membrane preparations are resuspended in 3 ml of chilled Assay Buffer and homogenized by several passages through a 26 gauge needle before using in the assay.
The 250-μl reactions are incubated at room temperature for 1.5 hours, then harvested by rapid filtration onto 0.3% polyethyleneimine-treated, 96-well filter mats using a 96-well Filtermate harvester. Four rapid 500-μl washes are performed with chilled Assay Buffer to reduce non-specific binding. The filter mats are dried, then scintillant is added to the filters and the radioactivity retained on the filters is counted in a Microbeta scintillation counter.
Raw data (dpm) representing total radioligand binding (i.e., specific+non-specific binding) are plotted as a function of the logarithm of the molar concentration of the competitor (i.e., test or reference compound). Non-linear regression of the normalized (i.e., percent radioligand binding compared to that observed in the absence of test or reference compound) raw data is performed in Prism 4.0 (GraphPad Software) using the built-in three parameter logistic model describing ligand competition binding to radioligand-labeled sites: y=bottom+[(top−bottom)/(1+10x−log IC50)] where bottom equals the residual radioligand binding measured in the presence of 10 μM reference compound (i.e., non-specific binding) and top equals the total radioligand binding observed in the absence of competitor. The log IC50 (i.e., the log of the ligand concentration that reduces radioligand binding by 50%) is thus estimated from the data and used to obtain the Ki by applying the Cheng-Prusoff approximation: Ki=IC50/(1+[ligand]/KD) where [ligand] equals the assay radioligand concentration and KD equals the affinity constant of the radioligand for the target receptor.
Compounds of the disclosure are also screened at a single concentration of 10 μM using the same method described for the Radiolabel Binding Studies for Serotonin 5HT7 receptors to determine the percent inhibition of [^3H]-5HT binding.

Chain of Serotonin 5-HT7 Receptors (P34969 whole entry): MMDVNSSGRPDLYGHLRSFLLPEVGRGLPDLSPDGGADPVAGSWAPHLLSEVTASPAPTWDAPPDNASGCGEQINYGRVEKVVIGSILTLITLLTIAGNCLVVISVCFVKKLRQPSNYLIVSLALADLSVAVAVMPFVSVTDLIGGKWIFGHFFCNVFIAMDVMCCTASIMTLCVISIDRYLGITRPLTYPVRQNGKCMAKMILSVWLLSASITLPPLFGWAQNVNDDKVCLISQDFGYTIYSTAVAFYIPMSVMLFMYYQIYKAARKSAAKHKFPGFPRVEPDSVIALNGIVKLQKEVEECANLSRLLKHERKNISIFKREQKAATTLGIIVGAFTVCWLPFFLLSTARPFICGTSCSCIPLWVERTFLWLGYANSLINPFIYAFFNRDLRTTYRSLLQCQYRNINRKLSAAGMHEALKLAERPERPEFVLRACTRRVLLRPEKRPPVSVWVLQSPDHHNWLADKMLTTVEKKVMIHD

Question: How did the IC50 turn out when `CCC1(CC)CC(CCN2CC3CN(c4ccccc4C)CC3C2)OC1=O` (stereo not shown) [Entry 4] was run?
Answer: Its IC50 is 179 nM.

Question: How did the IC50 turn out when `CCC1(CC)CC(CCN2CC3CN(c4ccccc4C#N)CC3C2)OC1=O` (stereo not shown) [Entry 7] was run?
Answer: The IC50 was 8.9 nM.

Question: Which IC50 does the source give for `CC(C)c1ccccc1N1CC2CN(CCC3CC4(CCCCC4)C(=O)O3)CC2C1` (stereo not shown) [Entry 3] here?
Answer: The IC50 was 268 nM.

Question: Which IC50 does the source give for `CCC1(CC)CC(CCN2CC3CN(c4ccc(O)cc4)CC3C2)OC1=O` (stereo not shown) [Entry 15] here?
Answer: The IC50 was 130 nM.

Question: How did the IC50 turn out when `CCC1(CC)CC(CCN2CC3CN(c4ccccc4OC)CC3C2)OC1=O` (stereo not shown) [Entry 10] was run?
Answer: The IC50 was 151 nM.

Question: `CCC1(CC)CC(CCN2CC3CN(c4cccc(C#N)c4)CC3C2)OC1=O` (stereo not shown) [Entry 8] was tested. Which inhibition at 10 µM did it give?
Answer: Its inhibition at 10 µM is 48.9%.

Question: For `CCC1(CC)CC(CCN2CC3CN(c4cccc(C)c4)CC3C2)OC1=O` (stereo not shown) [Entry 5], which IC50 is on record?
Answer: The IC50 was 104 nM.

Question: `CCC1(CC)CC(CCN2CC3CN(c4ccccc4)CC3C2)OC1=O` (stereo not shown) [Entry 1] was tested. Which IC50 did it give?
Answer: The IC50 was 64 nM.

Question: With `CCC1(CC)CC(CCN2CC3CN(c4cccc(O)c4)CC3C2)OC1=O` (stereo not shown) [Entry 14] as the compound, how does the inhibition at 10 µM read?
Answer: Its inhibition at 10 µM is 39.8%.

Question: For `CCC1(CC)CC(CCN2CC3CN(c4ccc(C#N)cc4)CC3C2)OC1=O` (stereo not shown) [Entry 9], which inhibition at 10 µM is on record?
Answer: Its inhibition at 10 µM is 26.3%.

Question: How did the inhibition at 10 µM turn out when `CCC1(CC)CC(CCN2CC3CN(c4ccc(OC)cc4)CC3C2)OC1=O` (stereo not shown) [Entry 12] was run?
Answer: The inhibition at 10 µM was 24.5%.

Question: How did the IC50 turn out when `CCC1(CC)CC(CCN2CC3CN(c4ccccc4O)CC3C2)OC1=O` (stereo not shown) [Entry 13] was run?
Answer: The IC50 was 227 nM.

Question: For `CCC1(CC)CC(CCN2CC3CN(c4ccccc4N4CCOCC4)CC3C2)OC1=O` (stereo not shown) [Entry 16], which IC50 is on record?
Answer: The IC50 was 160 nM.

Question: With `CCC1(CC)CC(CCN2CC3CN(c4ccccc4C(C)C)CC3C2)OC1=O` (stereo not shown) [Entry 2] as the compound, how does the IC50 read?
Answer: The IC50 was 277 nM.

Question: `CCC1(CC)CC(CCN2CC3CN(c4ccc(C)cc4)CC3C2)OC1=O` (stereo not shown) [Entry 6] was tested. Which inhibition at 10 µM did it give?
Answer: Its inhibition at 10 µM is 44.5%.

Question: With `CCC1(CC)CC(CCN2CC3CN(c4cccc(OC)c4)CC3C2)OC1=O` (stereo not shown) [Entry 11] as the compound, how does the IC50 read?
Answer: Its IC50 is 911 nM.
